One series concerns rat. The settings on record: oral; cited from earlier work.
In a further series the test system is prostate cancer. The settings on record: consumption of lycopene; Giovannucci et al. 1995; cited from earlier work.
Series [1] can be described thus: Pigment (lycopene) stability in freeze-dried tomato skins on 6-day storage at 30° C. The settings on record: 6 days at 30° C., hexanes extract, spectrophotometric. In kind it is physicochemical. An excerpt: Wet tomato skins from Siagra Co., Chengmai, Thailand (8.3 kg of the 50 lb batch used in Example 1) were freeze-dried for three days in a tray freeze-dryer (FTS Systems Inc., Stone Ridge N.Y.) to obtain freeze-dried tomato skins (2.08 kg, 24.3 percent moisture) from which five samples were taken.
The first sample of freeze-dried tomato skins was ground in a rotary meat grinder, which separated the seeds from the tomato skins. Further separation using sieves and air separation produced samples that were substantially only from the skins or the seeds of the tomatoes. The skin and seed samples were ground separately in a CYCLOTEC TECATOR™ mill (Fisher Scientific, Pittsburgh Pa.) fitted with a 0.5 mm screen, and found to contain 1328 milligrams of pigment per kilogram of tomato skins and 97 milligrams of pigment per kilogram of tomato seeds. The seeds thus contribute little to the total extractable pigment yet constitute a large portion of the total sample mass.
A second sample was left in flake form, and was dried for 6 days at 30° C. A third sample was ground in a WILEY™ mill (Fisher Scientific, Pittsburgh Pa.) fitted with a 2 mm screen and dried for 6 days at 30° C. A fourth sample was ground in a WILEY™ mill fitted with a 1 mm screen and dried for 6 days at 30° C. A fifth sample was ground in a CYCLOTEC™ mill fitted with a 0.5 mm screen and dried for 6 days at 30° C.
At the end of the treatment, all of the samples were extracted with hexanes, analyzed spectrophotometrically, and compared with the amount of lycopene present in the freeze-dried flakes before the 6-day heat treatment. The samples ground in the CYCLOTEC™ mill (<0.5 mm particles) and the WILEY™ mill (<1 mm and <2 mm particles) had more of the oxidized lycopene content than the non-ground (flake) sample: 36, 33, 36 and 25 percent pigment losses, respectively. However, none of the samples after 6 days had over 75 percent of the lycopene that was present before the treatment.

In the case of `c1ccncc1` [Pyridine], the LD50 with rat was 1.58 mL/kg.
Take `ClC(Cl)Cl` [Chloroform]: the LD50 in the series with rat is 2.18 mL/kg.
`CC(C)=CCC/C(C)=C/C=C/C(C)=C/C=C/C(C)=C/C=C/C=C(C)/C=C/C=C(C)/C=C/C=C(\C)CCC=C(C)C` [lycopene, .psi.,.psi.-carotene]: the “risk of prostate cancer” value with prostate cancer was “reduced risk of prostate cancer”. For the same molecule, the pigment losses in series [1] (CYCLOTEC mill, <0.5 mm particles) worked out at 36%; in series [1] (WILEY mill, <1 mm particles) it was 33%; in series [1] (WILEY mill, <2 mm particles), 36%; in series [1] (non-ground (flake) sample) it was 25%.
For the molecule `CC(C)=O` [Acetone], in the series with rat, the LD50 is recorded as 10.7 mL/kg.
As to `CC(O)CO` (stereo not shown) [Propylene Glycol, 1,2-propanediol], the LD50 in the series on rat is reported as 25 mL/kg.
On to `CCOC(C)=O` [Ethyl Acetate], for which, in the series on rat, the LD50 is 11.3 mL/kg.

(Values after patent US5858700A, “Process for the isolation and purification of lycopene crystals” (Kemin Foods, LC, priority 1997, dated 1999).)
